The subject of series [1] is NCI-H1299. Description: cells. The series is classed as functional, cell-based. Conditions: Homo sapiens, NCI-H1299, 24 h.
Description: Antiproliferative activity against human NCI-H1299 cells assessed as inhibition of cell growth incubated for 24 hrs by CCK-8 assay
Series [2] deals with HCC827. Description: cells. The settings on record: Homo sapiens, HCC827, 24 h. The series is classed as functional, cell-based.
Description: Antiproliferative activity against human HCC827 cells assessed as inhibition of cell growth incubated for 24 hrs by CCK-8 assay
The nature of the next series: in vitro. The settings on record: human, HEK293T cells.
The test system of series [3] is NCI-H1975. Put plainly: cells. The series is classed as functional, cell-based. Conditions: Homo sapiens, NCI-H1975, 24 h.
Description: Antiproliferative activity against human NCI-H1975 cells assessed as inhibition of cell growth incubated for 24 hrs by CCK-8 assay
Series [4] relates to A549. Put plainly: cells. The series is classed as functional, cell-based. Conditions: Homo sapiens, A549, 24 h.
Description: Antiproliferative activity against human A549 cells assessed as inhibition of cell growth incubated for 24 hrs by CCK-8 assay
Series [5] relates to NCI-H1975. Put plainly: Induction of mitochondrial transmembrane potential dissipation in human NCI-H1975 cells assessed as cells with high mitochondrial transmembrane potential at 1 micromol/L by FL-1/FL-2 channel based fluorescence analysis (reference value: 97.4%). The series is classed as functional. Conditions: dose 1 µmol/L; at 1 µM.
Series [6] deals with A549. Put plainly: Induction of apoptosis in human A549 cells assessed as early apoptotic cells at 2 micromol/L incubated for 24 hrs by Annexin V-FITC/PI staining based analysis (reference value: […]%). The series is classed as functional. Conditions: dose 2 µmol/L.
Series [7] relates to NCI-H1299. Description: Induction of apoptosis in human NCI-H1299 cells assessed as early apoptotic cells at 2 micromol/L incubated for 24 hrs by Annexin V-FITC/PI staining based analysis (reference value: 2.43%). The series is classed as functional. Conditions: dose 2 µmol/L, at 2 µM.
The subject of series [8] is HCC827. Description: Induction of apoptosis in human HCC827 cells assessed as late apoptotic cells at 2 micromol/L incubated for 24 hrs by Annexin V-FITC/PI staining based analysis (reference value: 8.42%). The series is classed as functional. Conditions: dose 2 µmol/L, at 2 µM.
Series [9] concerns NCI-H1975. Description: Induction of apoptosis in human NCI-H1975 cells assessed as early apoptotic cells at 2 micromol/L incubated for 24 hrs by Annexin V-FITC/PI staining based analysis (reference value: 1.88%). The series is classed as functional. The settings on record: dose 2 µmol/L, at 2 µM.
Series [10] concerns HCC827. Description: Induction of apoptosis in human HCC827 cells assessed as early apoptotic cells at 2 micromol/L incubated for 24 hrs by Annexin V-FITC/PI staining based analysis (reference value: 9.14%). The series is classed as functional. Conditions: dose 2 µmol/L, at 2 µM.
Series [11] relates to NCI-H1299. Put plainly: Induction of apoptosis in human NCI-H1299 cells assessed as late apoptotic cells at 2 micromol/L incubated for 24 hrs by Annexin V-FITC/PI staining based analysis (reference value: 14.9%). The series is classed as functional. Conditions: dose 2 µmol/L, at 2 µM.
Series [12] relates to A549. Description: Induction of apoptosis in human A549 cells assessed as late apoptotic cells at 2 micromol/L incubated for 24 hrs by Annexin V-FITC/PI staining based analysis (reference value: 3.18%). The series is classed as functional. Conditions: dose 2 µmol/L, at 2 µM.
Series [13] relates to NCI-H1975. Description: Induction of apoptosis in human NCI-H1975 cells assessed as late apoptotic cells at 2 micromol/L incubated for 24 hrs by Annexin V-FITC/PI staining based analysis (reference value: 2.66%). The series is classed as functional. Conditions: dose 2 µmol/L, at 2 µM.
For series [14], the system named is NCI-H1975. Description: Induction of mitochondrial transmembrane potential dissipation in human NCI-H1975 cells assessed as cells with low mitochondrial transmembrane potential at 1 micromol/L by FL-1/FL-2 channel based fluorescence analysis (reference value: 2.13%). The series is classed as functional. Conditions: dose 1 µmol/L; at 1 µM.
The test system of series [15] is NCI-H1975. Put plainly: Induction of apoptosis in human NCI-H1975 cells assessed as live cells at 10 micromol/L incubated for 24 hrs by Annexin V-FITC/PI staining based analysis (reference value: 88.7%). The series is classed as functional. Conditions: dose 10 µmol/L, at 10 µM.
The subject of series [16] is NCI-H1975. Put plainly: Induction of apoptosis in human NCI-H1975 cells assessed as dead cells at 10 micromol/L incubated for 24 hrs by Annexin V-FITC/PI staining based analysis (reference value: 0.103%). The series is classed as functional. Conditions: dose 10 µmol/L, at 10 µM.
Series [17] relates to NCI-H1975. Description: Induction of apoptosis in human NCI-H1975 cells assessed as early apoptotic cells at 10 micromol/L incubated for 24 hrs by Annexin V-FITC/PI staining based analysis (reference value: 2.55%). The series is classed as functional. The settings on record: dose 10 µmol/L, at 10 µM.

Description for in vitro: Cytotoxicity against HEK293T cells assessed as inhibition of cell growth incubated for 24 hrs by CCK-8 assay

For orientation: IC50 means the concentration that gives 50% inhibition. Lower therefore signals greater potency. Take `COC(=O)[C@H](CS[C@H](CC=C(C)C)C1=CC(=O)c2c(O)ccc(O)c2C1=O)NC(=O)CCCC[C@@H]1CCSC(c2cccc(Br)c2)S1` (stereo partly drawn): the IC50 in the series on NCI-H1299 [1] came out at 3.53 µM; with HCC827 [2], 11.8 µM; in the series with NCI-H1975 [3], 7.4 µM; with A549 [4], 15.2 µM. 96.7 µM corresponded to half-maximal inhibition in the series “in vitro” (IC50 at 24 h).
Taken in the same sequence, the figures for `COC(=O)[C@H](CS[C@H](CC=C(C)C)C1=CC(=O)c2c(O)ccc(O)c2C1=O)NC(=O)CCCC[C@@H]1CCSC(c2cccc(Cl)c2Cl)S1` (stereo partly drawn) were 4.5 µM, 16.6 µM, 1.7 µM, 16.1 µM and 98.2 µM.
Consider `CC(C)=CC[C@@H](O)C1=CC(=O)c2c(O)ccc(O)c2C1=O` [SHIKONIN], for which the Activity with NCI-H1975 [5] is recorded as 91.3%; in the series on A549 [6] it was 10.7%; with NCI-H1299 [7] it was 4.34%; in the series on HCC827 [8], 22.1%; with NCI-H1975 [9], 8.91%; in the series with HCC827 [10], 27.5%. Also, the Activity is 17.2% in the series on NCI-H1299 [11], 4.66% in the series with A549 [12], 9.96% with NCI-H1975 [13] and 8.69% in the series with NCI-H1975 [14]. In addition, the IC50 in the series on NCI-H1299 [1] stood at 3.95 µM; in the series on HCC827 [2], 9.21 µM; with NCI-H1975 [3], 4.56 µM; with A549 [4], 4.47 µM. The compound further returned an IC50 at 24 h in the series “in vitro” of 2.63 µM.
With `COC(=O)[C@H](CS[C@H](CC=C(C)C)C1=CC(=O)c2c(O)ccc(O)c2C1=O)NC(=O)CCCC[C@@H]1CCSC(c2ccc(Cl)cc2)S1` (stereo partly drawn), the IC50 in the series with NCI-H1299 [1] is 8.26 µM; in the series on HCC827 [2] it was 10.9 µM; in the series on NCI-H1975 [3], 8.26 µM; with A549 [4] it was 11.5 µM. In addition, in the series “in vitro”, the IC50 at 24 h was 86 µM.
Regarding `COC(=O)[C@H](CS[C@H](CC=C(C)C)C1=CC(=O)c2c(O)ccc(O)c2C1=O)NC(=O)CCCC[C@@H]1CCSC(C2CCCCC2)S1` (stereo partly drawn), the IC50 with NCI-H1299 [1] is 11.6 µM; in the series with HCC827 [2], 11.5 µM; in the series on NCI-H1975 [3], 13.3 µM; with A549 [4] it was 18.3 µM. This compound also gave a half-inhibitory concentration (IC50) at 24 h in the series “in vitro” of 86.1 µM.
For the compound `COC(=O)[C@H](CS[C@H](CC=C(C)C)C1=CC(=O)c2c(O)ccc(O)c2C1=O)NC(=O)CCCC[C@@H]1CCSC(c2ccc(OCc3ccccc3)cc2)S1` (stereo partly drawn), the IC50 in the series with NCI-H1299 [1] turned out to be 24.8 µM; in the series with HCC827 [2] it was 19.3 µM; with NCI-H1975 [3] it was 15.7 µM; in the series on A549 [4], 13.3 µM. Further, the IC50 at 24 h in the series “in vitro” worked out at 88.7 µM.
Consider `COc1cc2ncnc(Nc3ccc(F)c(Cl)c3)c2cc1OCCCN1CCOCC1` [GEFITINIB], for which the Activity in the series on NCI-H1975 [15] stood at 89%; in the series with NCI-H1975 [16], 0%; with NCI-H1975 [17] it was 1.45%.
`COC(=O)[C@H](CS[C@H](CC=C(C)C)C1=CC(=O)c2c(O)ccc(O)c2C1=O)NC(=O)CCCC[C@@H]1CCSC(c2ccccc2Cl)S1` (stereo partly drawn): the IC50 is 6.73 µM in the series on NCI-H1299 [1], 8.31 µM in the series with HCC827 [2], 8.3 µM in the series on NCI-H1975 [3] and 9.56 µM with A549 [4]. The IC50 at 24 h in “in vitro” was determined as 84.5 µM.
